This note sets out measurements from patent USRE46511E1, “Fused pyrimidine derivatives for inhibition of tyrosine kinase activity” (HANMI SCIENCE CO., LTD., priority 2010, dated 2017).

By IC50 is commonly meant the concentration that gives 50% inhibition. A high value points to a need for much substance.

Structures are written as SMILES.

One assay addresses T1, BTK (Homo sapiens, UniProt Q06187).
T1 construct: purchased Invitrogen
Kind of assay: z-lyte kinase assay, BTK. It is filed as biochemical. On the procedure:
(§1) The inhibiting activities of the inventive compounds obtained in Examples 1 to 237 against EGFR WT and EGFR L858R/T790M kinase were determined using z-lyte kinase assay kit (Invitrogen, PV3191). The kinases used in the test were purchased from Invitrogen.
(§2) The compounds obtained in Examples 1 to 237 were each prepared to 10 mM DMSO solution, and a solution containing 4% DMSO were prepared therefrom and diluted to a concentration of 1 μM to 0.0001 μM. […] The test was conducted in a 384 well polystyrene flat-bottomed plates. 5 μl of the diluted solution of each compound was added to each well, and 10 μl of a mixture of peptide substrate and kinase in a suitable concentration and 5 μl of 5˜300 μM ATP solution were successively added thereto and the plate was incubated in a stirrer at room temperature for 60 minutes. After 60 mins, 10 μl of coloring reagent was added to the resulting mixture to initiate a fluorescence reaction of peptide substrate and a terminating solution was added thereto for terminating the reaction. A fluorescence value of each well was determined with a fluorescence meter (Molecular Device) at 400 nm (excitation filter) and 520 nm (emission filter). […] The calculation of IC50 and the result analysis were carried out by using Microsoft Excel.
(§3) The inhibiting activities of the inventive compounds obtained in Examples 1 to 237 against BTK and JAK3 kinases were determined, respectively. The procedure of Test Example 2 was repeated except that BTK and JAK3 kinases (Invitrogen) were employed instead of using the EGFR kinase.

The next assay addresses T2, JAK3 (Homo sapiens, UniProt P52333).
T2 construct: purchased Invitrogen
T2 sequence (P52333 1-1124): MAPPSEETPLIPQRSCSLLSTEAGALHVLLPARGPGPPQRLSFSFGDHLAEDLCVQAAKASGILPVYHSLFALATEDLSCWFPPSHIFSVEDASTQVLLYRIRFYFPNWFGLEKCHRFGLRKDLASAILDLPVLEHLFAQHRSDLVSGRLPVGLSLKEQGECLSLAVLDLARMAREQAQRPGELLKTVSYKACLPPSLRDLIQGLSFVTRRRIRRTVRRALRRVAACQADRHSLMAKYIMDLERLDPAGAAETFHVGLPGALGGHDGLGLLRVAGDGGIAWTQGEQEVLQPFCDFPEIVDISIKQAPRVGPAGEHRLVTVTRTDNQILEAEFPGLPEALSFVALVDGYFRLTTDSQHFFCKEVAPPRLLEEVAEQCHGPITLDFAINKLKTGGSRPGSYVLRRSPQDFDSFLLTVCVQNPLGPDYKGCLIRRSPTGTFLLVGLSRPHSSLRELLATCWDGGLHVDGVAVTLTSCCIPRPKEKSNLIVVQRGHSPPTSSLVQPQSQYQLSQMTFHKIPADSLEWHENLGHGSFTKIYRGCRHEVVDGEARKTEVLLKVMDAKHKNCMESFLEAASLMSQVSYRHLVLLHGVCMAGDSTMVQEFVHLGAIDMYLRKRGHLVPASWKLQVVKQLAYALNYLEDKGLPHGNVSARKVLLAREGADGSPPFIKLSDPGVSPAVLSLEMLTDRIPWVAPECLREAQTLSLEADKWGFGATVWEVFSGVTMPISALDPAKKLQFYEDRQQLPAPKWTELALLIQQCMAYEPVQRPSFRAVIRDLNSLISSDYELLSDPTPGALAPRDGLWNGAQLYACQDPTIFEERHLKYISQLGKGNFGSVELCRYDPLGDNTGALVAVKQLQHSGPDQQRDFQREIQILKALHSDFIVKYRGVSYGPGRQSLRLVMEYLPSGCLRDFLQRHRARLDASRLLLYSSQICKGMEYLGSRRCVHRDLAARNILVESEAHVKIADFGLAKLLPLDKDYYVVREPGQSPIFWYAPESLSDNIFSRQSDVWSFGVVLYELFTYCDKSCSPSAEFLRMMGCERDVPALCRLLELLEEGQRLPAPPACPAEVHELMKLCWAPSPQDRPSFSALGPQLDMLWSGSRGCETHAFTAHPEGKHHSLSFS
Kind of assay: z-lyte kinase assay, JAK3. The format is biochemical. The procedure:
as §1, §2, §3

T1 sequence (Q06187 whole entry): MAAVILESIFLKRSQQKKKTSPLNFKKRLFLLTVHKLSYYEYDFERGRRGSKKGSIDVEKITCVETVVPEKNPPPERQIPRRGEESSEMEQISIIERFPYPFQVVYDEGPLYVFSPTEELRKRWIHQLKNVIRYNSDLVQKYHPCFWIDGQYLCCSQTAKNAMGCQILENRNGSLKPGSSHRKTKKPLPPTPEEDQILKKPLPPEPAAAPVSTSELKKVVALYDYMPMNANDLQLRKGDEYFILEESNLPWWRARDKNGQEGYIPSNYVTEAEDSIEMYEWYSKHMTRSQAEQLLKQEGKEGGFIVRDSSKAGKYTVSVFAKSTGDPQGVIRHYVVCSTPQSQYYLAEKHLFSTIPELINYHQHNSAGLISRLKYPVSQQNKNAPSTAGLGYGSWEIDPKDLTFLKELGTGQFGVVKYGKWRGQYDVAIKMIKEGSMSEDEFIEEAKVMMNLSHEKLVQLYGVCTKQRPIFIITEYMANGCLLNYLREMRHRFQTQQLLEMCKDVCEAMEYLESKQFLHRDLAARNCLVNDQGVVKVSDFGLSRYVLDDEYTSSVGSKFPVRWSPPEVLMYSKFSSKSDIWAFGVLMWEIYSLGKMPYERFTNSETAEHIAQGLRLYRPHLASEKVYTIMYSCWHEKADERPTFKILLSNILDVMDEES

For the molecule `C=CC(=O)Nc1cccc(Oc2nc(Nc3ccc(N4CCC(C(=O)O)CC4)cc3)nc3ccsc23)c1` [Example 44], the IC50 on BTK and on JAK3 was 0.05 to 0.1 µM in each case.
Turning to `C=CC(=O)Nc1cccc(Oc2nc(Nc3ccc(S(N)(=O)=O)cc3)nc3ccsc23)c1` [Example 70], the IC50 at BTK and against JAK3 was at most 0.05 µM in each case.
With `C=CC(=O)Nc1cccc(Oc2nc(Nc3ccc([S+](C)[O-])cc3)nc3ccsc23)c1` (stereo not shown) [Example 68], the IC50 was 0.05 to 0.1 µM at BTK and at most 0.05 µM on JAK3.
On to `C=CC(=O)Nc1cccc(Oc2nc(Nc3ccc(C4=NCCCN4)cc3)nc3ccsc23)c1` [Example 104], for which the IC50 against BTK and against JAK3 was at most 0.05 µM in each case.
In the case of `C=CC(=O)Nc1cccc(Oc2nc(Nc3ccc(S(=O)(=O)NC4CCN(C)CC4)cc3)nc3ccsc23)c1` [Example 73], the IC50 on BTK was at most 0.05 µM; at JAK3, 0.05 to 0.1 µM.
Take `C=CC(=O)Nc1cccc(Oc2nc(Nc3ccc(N4CCC(N5CCCC5)CC4)nc3)nc3ccsc23)c1` [Example 151]: the IC50 against BTK and against JAK3 was 0.05 to 0.1 µM each time.
For `C=CC(=O)Nc1cccc(Oc2nc(Nc3ccc(P(=O)(OCC)OCC)cc3)nc3ccsc23)c1` [Example 67], the IC50 at BTK and at JAK3 was at most 0.05 µM in each case.
As to `C=CC(=O)Nc1cccc(Oc2nc(Nc3ccc(CN4CCC(O)CC4)cc3)nc3ccsc23)c1` [Example 179], the IC50 against BTK and at JAK3 was at most 0.05 µM throughout.
For the molecule `C=CC(=O)Nc1cccc(Oc2nc(Nc3ccc(C(=O)N4CCN(C5CCN(C)CC5)CC4)cc3)nc3ccsc23)c1` [Example 91], the figures for the 50% inhibitory concentration (IC50) against BTK and at JAK3 were at most 0.05 µM and 0.05 to 0.1 µM, respectively.
Taken in the same sequence, the figures for `C=CC(=O)Nc1cccc(Oc2nc(Nc3ccc(N4CCN(C(=O)CN(C)C)CC4)cc3)nc3ccsc23)c1` [Example 21] were at most 0.05 µM and 0.05 to 0.1 µM.
Taken in the same sequence, the figures for `C=CC(=O)Nc1cccc(Oc2nc(Nc3ccc(C(=O)NC4CCN(C)CC4)c(C)c3)nc3ccsc23)c1` [Example 145] were at most 0.05 µM and at most 0.05 µM.
For `C=CC(=O)Nc1cccc(Oc2nc(Nc3ccc(C(=O)N4CCC(NC)C4)cc3)nc3ccsc23)c1` (stereo not shown) [Example 85] the same measures were at most 0.05 µM and at most 0.05 µM.
Consider `C=CC(=O)Nc1cccc(Oc2nc(Nc3ccc(NC4CCN(C)CC4)c(Cl)c3)nc3ccsc23)c1` [Example 141], for which the figures for the IC50 on BTK and at JAK3 were at most 0.05 µM and 0.05 to 0.1 µM, respectively.
Turning to `C=CC(=O)Nc1cccc(Oc2nc(Nc3ccc(N4CCC(N5CCCCC5)CC4)nc3)nc3ccsc23)c1` [Example 152], the IC50 against BTK was at most 0.05 µM; on JAK3, 0.05 to 0.1 µM.
For `C=CC(=O)Nc1cccc(Oc2nc(Nc3ccc(N4CCN(C(C)C)CC4)nc3)nc3ccsc23)c1` [Example 146] the same measures were 0.05 to 0.1 µM and 0.05 to 0.1 µM.
On to `C=CC(=O)Nc1cccc(Oc2nc(Nc3ccc(C(=O)N4CCN(C)CC4)cc3)nc3ccsc23)c1` [Example 89], for which the figures for the IC50 against BTK and against JAK3 were at most 0.05 µM and 0.05 to 0.1 µM, respectively.
Consider `C=CC(=O)Nc1cccc(Oc2nc(Nc3ccc(C4C(=O)N(C)CCN4C)cc3)nc3ccsc23)c1` (stereo not shown) [Example 105], for which the values for the IC50 on BTK and against JAK3 were 0.05 to 0.1 µM and at most 0.05 µM, respectively.
For `C=CC(=O)Nc1cccc(Oc2nc(Nc3ccc(CN4CCC(N(C)C)C4)cc3)nc3ccsc23)c1` (stereo not shown) [Example 177] the same measures were at most 0.05 µM and at most 0.05 µM.
As to `C=CC(=O)Nc1cccc(Oc2nc(Nc3ccc(S(=O)(=O)NC4CCN(C(C)C)CC4)cc3)nc3ccsc23)c1` [Example 74], the IC50 is at most 0.05 µM on BTK and 0.05 to 0.1 µM at JAK3.
Take `C=CC(=O)Nc1cccc(Oc2nc(Nc3ccc(C(=O)N4CCOCC4)cc3)nc3ccsc23)c1` [Example 88]: the IC50 on BTK and against JAK3 was 0.05 to 0.1 µM each time.
